Source: patent publication US20210322417A1, “GASTRIC CANCER TREATMENTS” (The Jackson Laboratory, priority 2018, published 2021)

Columns and labels:
[1] = system: CSK null OE19 cells; assay: CellTiter-Glo cell viability assay, CSK null OE19; assay type: cell-based, human; conditions: 6 days
Description: (§3) Then N87 and OE19 cells were infected with the corresponding viruses and the Lapatinib resistance was examined by treating the cells with indicated doses of Lapatinib for 6 days. Cell viability assay was performed as described below at the end of treatment.
(§4) For the cell viability assays, 4,000 cells/each well in a 96-well plate were treated with indicated drugs for 6 days and cell viabilities were measured using the CellTiter-Glo® luminescent cell viability assay kit according to the manufacturer's instructions (Promega). The luminescence intensity was measured using a multi-label plate reader (SpectraMax M5, Molecular Devices). The cell viabilities were calculated as relative values compared to the untreated controls.

[2] = system: PTEN null OE19 cells; assay: CellTiter-Glo cell viability assay, PTEN null OE19; assay type: cell-based, human; conditions: 6 days
Description: as §3, §4

[3] = system: OE19 cells transduced with non-targeting gRNA; assay: CellTiter-Glo cell viability assay, control OE19; assay type: cell-based, human; conditions: indicated doses of the agent in combination with 0.05 μM Lapatinib, 6 days
From the text: Viral particles were generated as described above.

[4] = system: OE19 cells transduced with non-targeting gRNA; assay: Caspase-Glo 3/7 apoptosis assay, control cells; assay type: cell-based, human; conditions: Lapatinib 48 h treatment
Description: (§1) We examined apoptosis induced by Lapatinib treatment in CSK or PTEN null cells as well as the control cells by measuring caspase-3/7 activation (Caspase-Glo assay).
(§2) Caspase activity was detected by using Caspase-Glo 3/7 assay kit (Promega). Briefly. The GC cells were seeded in 96-well white luminometer assay plates at a density of 4,000 cells per well and incubated at 37° C. Cells were treated with Lapatinib for 48 h, 100 ul caspase 3/7 reagents were added to each well and incubated for 1 h on rotary shaker at room temperature. The luminescence intensity was measured using a multi-label plate reader (SpectraMax M5, Molecular Devices).

[5] = system: CSK null OE19 cells; assay: Caspase-Glo 3/7 apoptosis assay, CSK null cells; assay type: cell-based, human; conditions: Lapatinib 48 h treatment
Description: as §1, §2

[6] = system: PTEN null OE19 cells; assay: Caspase-Glo 3/7 apoptosis assay, PTEN null cells; assay type: cell-based, human; conditions: Lapatinib 48 h treatment
Description: as §1, §2

[7] = system: N87-WT tumors; assay: Xenograft tumor model, N87-WT; assay type: in vivo, mice; conditions: lapatinib dosing test, three weeks of treatment
From the text: Tumors were induced by injecting N87-WT. […] Drug treatment was initiated when tumors reached a volume of 150-250 mm^3. Mice were randomly divided into seven treatment groups including 8-10 mice in each group: 1) vehicle only, 2) lapatinib only, 3) lapatinib+trametinib, 4) lapatinib+copanlisib, 5) trametinib+copanlisib, 6) lapatinib+trametinib+copanlisib, and 7) 5-FU.

[8] = system: N87-CSK−/− tumors; conditions: lapatinib dosing test, three weeks of treatment; N87-CSK−/− xenograft, compared to N87-WT
[9] = system: HER2-amplified GC; conditions: HER2-positive GC patients, clinical trial data; cited from earlier work
[10] = system: N87-PTEN−/− tumors; assay: Xenograft tumor model, N87-PTEN−/−; conditions: lapatinib dosing test, three weeks of treatment, compared to N87-WT
[11] = AZD0530 at highest concentration (1 μM) in combination with 0.05 μM Lapatinib
[12] = 0.1 μM of the agent in combination with 0.05 μM Lapatinib
[13] = indicated doses of the agent in combination with 0.05 μM Lapatinib

CN1CCN(CCOc2cc(OC3CCOCC3)c3c(Nc4c(Cl)ccc5c4OCO5)ncnc3c2)CC1 [AZD0530, Saracatinib]
cells survived [1, 11]: 9.15±0.88%
cells survived [2, 11]: 42.49±2.54%

COc1c(OCCCN2CCOCC2)ccc2c1N=C(NC(=O)c1cnc(N)nc1)N1CCN=C21 [Copanlisib]
effect on cell growth [1, 12]: significantly inhibited the cell growth, but not completely
effect on cell growth/viability [1, 13]: inhibited the cell growth
effect on cell growth [2, 12]: significantly inhibited the cell growth, but not completely
effect on cell growth/viability [2, 13]: inhibited the cell growth
effect on cell growth [3]: inhibited the cell growth

CS(=O)(=O)CCNCc1ccc(-c2ccc3ncnc(Nc4ccc(OCc5cccc(F)c5)c(Cl)c4)c3c2)o1 [Lapatinib]
fold of caspase-3/7 activity compared with vehicle treated cells [4]: 3.79±0.16 fold
fold of caspase-3/7 activity compared with vehicle treated cells [5]: 1.55±0.16 fold
fold of caspase-3/7 activity compared with vehicle treated cells [6]: 1.50±0.10 fold
effect on cell growth ([1]; 0.05 μM Lapatinib alone): could not inhibit the growth
effect on cell growth ([2]; 0.05 μM Lapatinib alone): could not inhibit the growth
tumor sensitivity to treatment [7]: sensitive to lapatinib treatment
tumor sensitivity to treatment [8]: relatively insensitive to lapatinib
survival [9]: failed to improve survival
tumor sensitivity to treatment [10]: resistant to lapatinib treatment
